Measurements as given in ChEMBL document CHEMBL1201862, “PubChem BioAssay data set” (2004).
The source made the active and inactive calls.

How the values were obtained:
[1] = Luminescence Cell-Based Dose Retest to Confirm Inhibitors of Cancer Stem Cells. [Related pubchem assays (depositor defined):AID2717, AID2721]; type: functional; details: Homo sapiens
Trypsin = Trypsin (Sus scrofa, UniProt P00761); assay: trypsin protease activity blockade – biochemical, quenched peptide fluorescence, cherry-pick, selectivity assay for Rce1 protease inhibitor project, dose response (AID 488789)
CAAX prenyl protease 2 = target: T1, CAAX prenyl protease 2 (Saccharomyces cerevisiae S288c, UniProt Q03530); type: biochemical
T1 sequence (Q03530 whole entry): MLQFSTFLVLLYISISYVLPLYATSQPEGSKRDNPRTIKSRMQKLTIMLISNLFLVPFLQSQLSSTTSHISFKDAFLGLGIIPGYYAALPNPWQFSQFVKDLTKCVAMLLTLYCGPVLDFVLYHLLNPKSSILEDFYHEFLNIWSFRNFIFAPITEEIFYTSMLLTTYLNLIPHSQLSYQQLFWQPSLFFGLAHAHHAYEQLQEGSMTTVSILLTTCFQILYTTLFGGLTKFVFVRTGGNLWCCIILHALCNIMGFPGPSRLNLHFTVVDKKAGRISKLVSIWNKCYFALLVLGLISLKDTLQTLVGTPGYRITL

[2] = target: T2, Replicative DNA helicase DnaB (Mycobacterium tuberculosis, UniProt P9WMR3); assay: DnaB intein splicing inhibitors, dose response, biochemical, cell-free fluorescence (AID 449749); type: functional
T2 sequence (P9WMR3 whole entry): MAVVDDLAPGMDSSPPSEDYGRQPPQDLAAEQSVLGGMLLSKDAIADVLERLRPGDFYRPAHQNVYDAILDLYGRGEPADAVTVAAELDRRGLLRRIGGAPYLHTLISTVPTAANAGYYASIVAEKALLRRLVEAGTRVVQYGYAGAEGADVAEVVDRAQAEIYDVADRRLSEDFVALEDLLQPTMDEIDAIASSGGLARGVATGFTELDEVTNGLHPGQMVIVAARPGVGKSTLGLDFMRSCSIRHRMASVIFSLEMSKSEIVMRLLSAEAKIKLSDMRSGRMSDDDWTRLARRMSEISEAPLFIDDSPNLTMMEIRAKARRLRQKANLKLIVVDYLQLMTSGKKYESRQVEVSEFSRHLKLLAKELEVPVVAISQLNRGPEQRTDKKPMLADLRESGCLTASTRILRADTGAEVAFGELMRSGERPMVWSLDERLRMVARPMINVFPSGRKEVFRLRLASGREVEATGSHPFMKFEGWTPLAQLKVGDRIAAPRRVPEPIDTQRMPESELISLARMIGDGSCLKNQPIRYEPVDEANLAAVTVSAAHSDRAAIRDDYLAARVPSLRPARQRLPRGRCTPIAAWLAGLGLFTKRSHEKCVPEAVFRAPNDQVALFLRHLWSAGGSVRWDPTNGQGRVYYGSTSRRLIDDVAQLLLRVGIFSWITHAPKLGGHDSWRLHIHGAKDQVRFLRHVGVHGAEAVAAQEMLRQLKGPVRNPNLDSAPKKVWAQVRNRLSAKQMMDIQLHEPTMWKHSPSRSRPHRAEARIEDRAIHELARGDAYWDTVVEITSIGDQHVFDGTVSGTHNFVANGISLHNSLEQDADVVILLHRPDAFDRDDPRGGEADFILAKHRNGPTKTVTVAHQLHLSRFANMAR

Protein RecA = target: T3, Protein RecA (Mycobacterium tuberculosis, UniProt P9WHJ3); assay: Fluorescence Cell-Free Homogeneous Dose Retest to Identify Inhibitors of RecA-Intein Splicing Activity. [Related pubchem assays (depositor defined):AID2097, AID2223, AID489010, AID492950]; type: functional
T3 sequence (P9WHJ3 whole entry): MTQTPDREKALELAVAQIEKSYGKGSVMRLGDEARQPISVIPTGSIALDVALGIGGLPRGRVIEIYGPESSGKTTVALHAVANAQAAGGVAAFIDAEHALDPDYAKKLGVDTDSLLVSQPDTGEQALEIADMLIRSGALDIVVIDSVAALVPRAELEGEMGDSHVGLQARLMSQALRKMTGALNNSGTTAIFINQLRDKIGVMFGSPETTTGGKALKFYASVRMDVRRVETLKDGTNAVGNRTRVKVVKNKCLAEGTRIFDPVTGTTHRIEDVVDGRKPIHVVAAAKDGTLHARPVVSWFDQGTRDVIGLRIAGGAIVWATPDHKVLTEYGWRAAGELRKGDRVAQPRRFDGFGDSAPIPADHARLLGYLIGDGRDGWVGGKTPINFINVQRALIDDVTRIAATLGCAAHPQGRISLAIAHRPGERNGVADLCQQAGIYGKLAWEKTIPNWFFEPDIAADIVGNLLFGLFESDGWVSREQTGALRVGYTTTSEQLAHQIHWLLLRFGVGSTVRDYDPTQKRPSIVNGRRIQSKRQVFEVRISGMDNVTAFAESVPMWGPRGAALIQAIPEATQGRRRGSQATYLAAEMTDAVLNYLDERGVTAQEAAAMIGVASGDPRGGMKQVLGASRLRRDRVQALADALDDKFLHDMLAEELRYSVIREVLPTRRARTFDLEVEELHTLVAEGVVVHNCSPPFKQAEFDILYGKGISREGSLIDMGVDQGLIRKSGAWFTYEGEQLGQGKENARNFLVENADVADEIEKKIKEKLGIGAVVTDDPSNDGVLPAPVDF

[3] = target: Disintegrin and metalloproteinase domain-containing protein 17 (Homo sapiens, UniProt P78536); assay: exosite inhibitors of ADAM17, dose response, biochemical (AID 743260)
[4] = inhibition of ADAM10 peptide cleavage – biochemical, FRET peptide substrate, recombinant human ADAM10, selectivity assay for ADAM17 exosite inhibitor project, dose response (AID 743259);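 note: ADAM10 enzyme cleaving a FRET peptide substrate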
[5] = target: Alkaline phosphatase, placental type (Homo sapiens, UniProt P05187); assay: human placental alkaline phosphatase inhibition – biochemical, luminescence, confirmation (AID 1512); type: functional
[6] = target: T4, Alkaline phosphatase, tissue-nonspecific isozyme (Homo sapiens, UniProt P05186); assay: potency against alkaline phosphatase TNAP – biochemical, luminescent, dose response, SAR follow-up (AID 1056)
T4 sequence (P05186 whole entry): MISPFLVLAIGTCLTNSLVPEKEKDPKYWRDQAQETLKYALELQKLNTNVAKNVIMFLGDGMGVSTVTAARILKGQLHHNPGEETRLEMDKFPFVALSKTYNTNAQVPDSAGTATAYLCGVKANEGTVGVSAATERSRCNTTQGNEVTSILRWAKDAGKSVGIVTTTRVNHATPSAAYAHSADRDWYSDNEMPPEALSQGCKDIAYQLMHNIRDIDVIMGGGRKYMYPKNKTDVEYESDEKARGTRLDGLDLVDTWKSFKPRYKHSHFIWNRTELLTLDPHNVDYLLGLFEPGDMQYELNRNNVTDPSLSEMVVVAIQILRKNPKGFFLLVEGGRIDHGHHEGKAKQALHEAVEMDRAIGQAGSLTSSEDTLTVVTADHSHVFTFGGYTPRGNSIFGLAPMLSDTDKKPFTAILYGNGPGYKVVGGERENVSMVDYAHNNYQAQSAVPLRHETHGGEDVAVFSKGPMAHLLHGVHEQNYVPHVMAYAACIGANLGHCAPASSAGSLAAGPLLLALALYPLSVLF

[7] = protection from phage-mediated lysis, alamar blue read-out – E. coli UTI89, K1F phage, bacterial capsule biogenesis inhibitors (AID 488966); type: functional
Vero [8] = assay: cells; type: functional, cell-based; details: Chlorocebus sabaeus
Vero [9] = assay: cells; type: functional; details: Chlorocebus sabaeus
[10] = target: G-protein coupled receptor 55 (Homo sapiens, UniProt Q9Y2T6); assay: selective activators of receptor GPR55 – imaging, U2OS cells, beta-arrestin-GFP redistribution, primary screen (AID 1961); type: functional
G-protein coupled receptor 55, sequence (Q9Y2T6 whole entry): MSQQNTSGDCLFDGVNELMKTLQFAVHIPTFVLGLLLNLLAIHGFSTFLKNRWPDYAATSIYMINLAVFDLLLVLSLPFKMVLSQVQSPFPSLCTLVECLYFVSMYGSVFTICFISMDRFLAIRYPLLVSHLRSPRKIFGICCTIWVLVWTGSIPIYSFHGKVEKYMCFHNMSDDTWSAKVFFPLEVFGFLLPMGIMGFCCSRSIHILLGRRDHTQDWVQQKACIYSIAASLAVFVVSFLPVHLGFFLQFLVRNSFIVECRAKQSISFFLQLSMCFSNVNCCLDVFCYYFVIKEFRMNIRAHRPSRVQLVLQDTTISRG

Alkaline phosphatase, placental type, sequence (P05187 whole entry): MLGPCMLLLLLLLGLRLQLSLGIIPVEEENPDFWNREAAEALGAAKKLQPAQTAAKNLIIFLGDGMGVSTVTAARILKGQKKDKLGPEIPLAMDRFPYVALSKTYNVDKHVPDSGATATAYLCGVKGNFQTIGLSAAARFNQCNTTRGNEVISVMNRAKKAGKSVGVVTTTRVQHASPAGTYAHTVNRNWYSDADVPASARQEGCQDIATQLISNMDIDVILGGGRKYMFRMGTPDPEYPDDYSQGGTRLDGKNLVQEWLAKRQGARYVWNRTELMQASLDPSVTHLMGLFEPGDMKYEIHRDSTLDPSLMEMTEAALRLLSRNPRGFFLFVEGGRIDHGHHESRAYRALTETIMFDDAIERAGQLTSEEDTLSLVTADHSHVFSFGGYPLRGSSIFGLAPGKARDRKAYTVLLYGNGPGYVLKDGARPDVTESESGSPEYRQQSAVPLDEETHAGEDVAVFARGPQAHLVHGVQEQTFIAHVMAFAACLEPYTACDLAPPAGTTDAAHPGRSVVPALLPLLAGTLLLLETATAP
Disintegrin and metalloproteinase domain-containing protein 17, sequence (P78536 whole entry, the tested form may be a part): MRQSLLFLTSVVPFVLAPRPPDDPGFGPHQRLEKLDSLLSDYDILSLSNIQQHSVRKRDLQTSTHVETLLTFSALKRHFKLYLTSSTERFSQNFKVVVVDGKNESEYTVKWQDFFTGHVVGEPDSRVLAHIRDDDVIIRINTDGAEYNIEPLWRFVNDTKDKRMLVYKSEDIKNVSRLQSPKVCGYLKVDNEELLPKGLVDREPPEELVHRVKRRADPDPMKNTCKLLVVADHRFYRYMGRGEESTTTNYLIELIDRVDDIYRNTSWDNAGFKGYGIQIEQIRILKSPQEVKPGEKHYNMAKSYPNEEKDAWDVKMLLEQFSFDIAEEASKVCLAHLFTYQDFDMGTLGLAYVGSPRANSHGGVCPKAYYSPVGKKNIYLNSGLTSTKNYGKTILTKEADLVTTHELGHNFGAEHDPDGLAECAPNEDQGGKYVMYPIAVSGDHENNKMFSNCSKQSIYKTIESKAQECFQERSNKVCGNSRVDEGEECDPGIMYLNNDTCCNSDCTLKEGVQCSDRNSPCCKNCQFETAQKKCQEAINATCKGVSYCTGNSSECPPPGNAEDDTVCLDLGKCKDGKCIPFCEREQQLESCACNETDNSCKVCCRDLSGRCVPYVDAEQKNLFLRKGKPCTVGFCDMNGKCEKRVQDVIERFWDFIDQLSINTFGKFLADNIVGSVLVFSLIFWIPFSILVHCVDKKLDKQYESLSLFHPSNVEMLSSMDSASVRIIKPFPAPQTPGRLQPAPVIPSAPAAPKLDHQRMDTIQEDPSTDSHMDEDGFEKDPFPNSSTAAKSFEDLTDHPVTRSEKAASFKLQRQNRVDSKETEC
Trypsin, sequence (P00761 whole entry): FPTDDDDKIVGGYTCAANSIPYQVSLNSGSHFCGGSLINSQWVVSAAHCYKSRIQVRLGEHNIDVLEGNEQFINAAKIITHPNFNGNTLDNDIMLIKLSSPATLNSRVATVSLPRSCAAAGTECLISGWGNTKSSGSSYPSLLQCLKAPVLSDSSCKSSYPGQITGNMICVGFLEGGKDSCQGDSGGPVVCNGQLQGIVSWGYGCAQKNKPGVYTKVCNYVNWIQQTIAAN

SMILES: N=c1c2c(ncn1Cc1ccco1)Oc1ccc3ccccc3c1C2c1ccccc1 (stereo not drawn)
- AC50 [1]: 2.09 µM (active)
- AC50 (Trypsin): 7.73 µM (active)
- AC50 (CAAX prenyl protease 2): 27.2 µM (active)
- AC50 [2]: 7.51 µM (active)
- EC50 (Protein RecA): 16.7 µM (active)
- IC50 [3]: > 69.5 µM (inactive)
- IC50 [4]: > 7.72 µM (active)

SMILES: C=CCn1c(SCC(=O)c2ccc(O)c(O)c2)nnc1-c1ccc(C)cc1
- IC50 [5]: 8.57 µM (active)
- IC50 [6]: > 100 µM (inactive)

SMILES: NCC1CCN(c2nc3ccccc3c3c2CCCC3)CC1
- IC50 [7]: > 150 µM (active)
- IC50 (Vero [8]): > 25 µM (active)
- CC50 (Vero [9]): 19.2 µM (active)

SMILES: CCN(CC)c1ccc(/C=N/OCC(=O)Nc2cccc(C)c2)cc1
- EC50 [10]: > 32 µM (inactive)
